Laboratory results published in US9981044B2, “Activation of adaptive immune processes for the treatment of cancers and infectious diseases” (Susavion Biosciences, Inc., priority 2014, dated 2018).
Where a SMILES comes first, the peptide text is derived from it. Bridges are numbered along the chain shown (N, C = ends). Roman numbers before positions name the chains, in order.

How the values were obtained:
[1] = system: ovarian cancer cell line ID8; test: Survival of mice implanted with ID8 cells; format: in vivo, C57Bl/6 mice
Method: Tumors were allowed to progress for 45 days before the animal were injected with svD2 every other day.
Female C57Bl/6 mice were implanted with ID8 cells. After allowing the cell to develop into tumors for 45 days, the animals received injections of svD2 every other day at a dose of 1 nmol/g body weight or 0.1 nmol/g body weight. Accumulation of ascites was monitored by weight of the animals as the result of expansion of the peritoneal cavity. […] Table 3 summarizes the survival data including a treatment with paclitaxel, which is a standard-of-care chemotherapeutic drug. The animals were given paclitaxel at a dose of 18 mg/kg body weight on days 45, 47 and 49 of the experiment.

[2] = Solubility of the polypeptide; format: physicochemical
From the text: svD2 in lyophilized form is a white fluffy powder using trifluoroacetate (TFA) or acetate as a counterion. Net polypeptide content with and without the counter ion was approximately 88% and 73%, respectively. The remainder was likely water of hydration of the highly polar polypeptide. Solubility of the polypeptide in water is high. In the preparation of aqueous pharmaceutical compositions of the polypeptide with any of the pharmaceutically acceptable carriers described above, concentrations of the polypeptide in isotonic saline of 10 mM, and possibly somewhat higher, can be readily achieved. According to representative embodiments, therefore, the polypeptide is administered to a subject suffering from cancer in an aqueous pharmaceutical composition having a polypeptide concentration generally from about 0.1 mM to about 10 mM, typically from about 0.1 mM to about 5 mM, and a pharmaceutically acceptable carrier.

[3] = system: Human peripheral blood mononuclear cells; test: Cytokine release by human PBMCs (cytokine antibody array); format: cell-based; conditions: 4-hour treatment, svD2 100 nM
Method: The polypeptide svD2, synthesized in Example 1 above, was evaluated in terms of a number of biological activities thought to correlate with its effectiveness against cancer.

peritoneal cells = test: Response of peritoneal cells in mice (flow cytometry); format: in vivo; conditions: C57BL/6 mice
Method: The number of cells is indicated as a ratio of the total number of each cell type normalized to the number of cells in untreated control samples.
To examine whether svD2 effectively stimulates the immune system in vivo, the peptide was injected subcutaneously on alternate days into Th1-poised C57BL/6 strain mice at a dose of 1 μmole/kg.

human PBMC cultures = test: Phagocytosis of opsonized microspheres in human PBMC cultures; format: cell-based; conditions: for Beads/cell (mean ± SD): treated 20 h (50 nM svD2 or 100 ng/mL IFNγ), challenged 1 h with microspheres opsonized with rabbit antiserum, 15 cells
Method: Whether the peptide svD2 stimulates phagocytosis was studied in the human PBMC cultures. The cells were treated 20 h with vehicle (phosphate-buffered saline, PBS), 50 nM svD2 or 100 ng/mL IFNγ, and then challenged 1 h with microspheres. Cells were fixed with 2% formalin and washed with PBS. Beads in each cell were counted on microscope images, with 15 cells analyzed for each treatment.

[4] = paclitaxel 18 mg/kg on days 45, 47 and 49
[5] = svD2 0.1 nmol/g every other day from day 45
[6] = svD2 1 nmol/g every other day from day 45

CC(=O)O[C@H]1C(=O)[C@@]2(C)[C@H]([C@H](OC(=O)c3ccccc3)[C@]3(O)C[C@H](OC(=O)[C@H](O)[C@@H](NC(=O)c4ccccc4)c4ccccc4)C(C)=C1C3(C)C)[C@]1(OC(C)=O)CO[C@@H]1C[C@@H]2O [Paclitaxel, paclitaxel, reference compound]
Mean survival [1, 4]: 81.5 days | Number of deaths [1, 4]: 10

CC(C)[C@H](N)C(=O)N[C@@H](CO)C(=O)N[C@@H](CC(N)=O)C(=O)N[C@@H](CCC(N)=O)C(=O)N[C@@H](Cc1c[nH]cn1)C(=O)NCC(=O)NCC(=O)NCC(=O)N[C@@H](CO)C(=O)NCCCC[C@H](NC(=O)[C@H](CO)NC(=O)CNC(=O)CNC(=O)CNC(=O)[C@H](Cc1c[nH]cn1)NC(=O)[C@H](CCC(N)=O)NC(=O)[C@H](CC(N)=O)NC(=O)[C@H](CO)NC(=O)[C@@H](N)C(C)C)C(=O)NCCCC[C@H](NC(=O)[C@H](CCCCNC(=O)[C@H](CO)NC(=O)CNC(=O)CNC(=O)CNC(=O)[C@H](Cc1c[nH]cn1)NC(=O)[C@H](CCC(N)=O)NC(=O)[C@H](CC(N)=O)NC(=O)[C@H](CO)NC(=O)[C@@H](N)C(C)C)NC(=O)[C@H](CO)NC(=O)CNC(=O)CNC(=O)CNC(=O)[C@H](Cc1c[nH]cn1)NC(=O)[C@H](CCC(N)=O)NC(=O)[C@H](CC(N)=O)NC(=O)[C@H](CO)NC(=O)[C@@H](N)C(C)C)C(N)=O [svD2, [(VSNQHGGGS)2K]2K-NH2] (I: H-VSNQHGGGSKK-NH2 / II: H-VSNQHGGGSK / III: H-VSNQHGGGS / IV: H-VSNQHGGGS; amide I:10-IV:C, I:11-II:C, II:10-III:C; N-terminus assumed)
solubility ([2]; isotonic saline, saline or isotonic, read-out: Achievable concentration in isotonic saline): ≥ 10 mM | Solubility in water ([2]; water): high | Relative level of Eotaxin released [3]: 47 | Relative level of Eotaxin-2 released [3]: 470 | Relative level of GM-CSF released [3]: 96 | Relative level of ICAM-1 released [3]: 70 | Relative level of IFNγ released [3]: 170 | Relative level of IL-1a released [3]: 322 | Relative level of IL-12p70 released [3]: 117 | Relative level of IL-15 released [3]: 137 | Relative level of IL-17 released [3]: 21 | Relative level of IL-21 released [3]: 130 | Relative level of IP-10 released [3]: 377 | Relative level of MCP-2 released [3]: 97 | Relative level of MIG released [3]: 94 | Relative level of PDGF-BB released [3]: 82 | Relative level of TIMP-2 released [3]: 285 | Relative level of TNF-α released [3]: 138 | Relative level of TNF-β released [3]: 93 | Memory B cells in the peritoneal cavity (peritoneal cells; 1 nmole/g doses, flow cytometry 24 hours after each injection): increase in memory B cells | Mature immune cells in peritoneal cells (peritoneal cells; 1 μmole/kg subcutaneously on alternate days, 24 hours after the second injection): several-fold increases | Changes in mature cell populations (CD3, CD8, NK1.1, CD19, CD69) (peritoneal cells; 1 μmole/kg subcutaneously, 24 hours after the first injection): small | Survival rate of mice implanted with ID8 cells ([1]; both doses, 1 nmol/g and 0.1 nmol/g body weight): improved the survival rate | Mean survival [1, 5]: 74.5 days | Number of deaths [1, 5]: 4 | Mean survival [1, 6]: 74 days | Number of deaths [1, 6]: 4 | Toxicity in treated mice (Toxicity in vivo): No evidence of toxicity | Stimulation of phagocytic cells (human PBMC cultures; human PBMC cultures, 50 nM svD2, 20 h): does not significantly stimulate phagocytic cells | Beads/cell (mean ± SD) (human PBMC cultures): 1.3 ± 1.8 Beads/cell

B1: IFNγ: cytokine used as comparator treatment, 100 ng/mL in phagocytosis test (protein, UniProt P01579 24-161, looked up)
Interferon gamma: QDPYVKEAENLKKYFNAGHSDVADNGTLFLGILKNWKEESDRKIMQSQIVSFYFKLFKNFKDDQSIQKSVETIKEDMNVKFFNSNKKKRDDFEKLTNYSVTDLNVQRKAIHELIQVMAELSPAAKTGKRKRSQMLFRG
Relative level of IL-21 released [3]: (IFNγ, 100) | Beads/cell (mean ± SD) (human PBMC cultures): 35.8 ± 12.6 Beads/cell
